# How the values were obtained:
# M3-receptor = target: T1, M3-receptor (Homo sapiens, UniProt P20309); test: M3-receptor functional agonist assay; assay type: cell-based
# T1 construct: expressed in transfected cells
# Description: (§1) Functional assays were performed using the Alphascreen Surefire phopho-ERK1/2 assay. […] Once adhered, cells were serum starved overnight. Agonist stimulation was performed by the addition of […] agonist to the cells for a pre-optimized 5 min period (37°C). Media was removed and 50 μl of lysis buffer added. After 15 min a 4 μl sample was transferred to a 384-well plate and 7 μl of detection mixture added.
# [1] = Non-human primate exposure; assay type: in vivo, non-human primates; details: for Predicted brain exposure Cu,br: non-human primates
# C57BL/6J mice = test: Scopolamine-induced deficit in contextual fear conditioning; assay type: in vivo, mouse; details: mice, 10, 30 or 100 mg/kg i.p. with scopolamine 1.5 mg/kg i.p.
# Description: C57BL/6J male mice (aged 8−12 weeks) were acclimatized to the behavioral testing suite at least 2 hours prior to the test. […] Mice were placed in the conditioning chamber (ANY-maze Fear Conditioning System; Stoelting, Dublin, Ireland); after a 2-min adaptation period, they received three tone/foot shock pairings where the foot shock (un-conditioned stimulus; 2 s; 0.4 mA) always co-terminated with a tone (conditioned stimulus; 2.8 kH; 85 dB; 30 s). The conditioned stimulus−unconditioned stimulus pairings were separated by 1-min intervals. After the mice completed training, they remained in the conditioning chamber for 1 min and were then returned to their home cages. The next day, the mice were placed back in the conditioning chamber, and time spent immobile was recorded for 3 min to assess context-dependent learning. Data were analyzed using ANY-maze software (Stoelting).
# M4-receptor = target: T2, M4-receptor (Homo sapiens, UniProt P08173); test: M4-receptor functional agonist assay; assay type: cell-based; design: expressed in transfected cells
# T2 sequence (P08173 1-479): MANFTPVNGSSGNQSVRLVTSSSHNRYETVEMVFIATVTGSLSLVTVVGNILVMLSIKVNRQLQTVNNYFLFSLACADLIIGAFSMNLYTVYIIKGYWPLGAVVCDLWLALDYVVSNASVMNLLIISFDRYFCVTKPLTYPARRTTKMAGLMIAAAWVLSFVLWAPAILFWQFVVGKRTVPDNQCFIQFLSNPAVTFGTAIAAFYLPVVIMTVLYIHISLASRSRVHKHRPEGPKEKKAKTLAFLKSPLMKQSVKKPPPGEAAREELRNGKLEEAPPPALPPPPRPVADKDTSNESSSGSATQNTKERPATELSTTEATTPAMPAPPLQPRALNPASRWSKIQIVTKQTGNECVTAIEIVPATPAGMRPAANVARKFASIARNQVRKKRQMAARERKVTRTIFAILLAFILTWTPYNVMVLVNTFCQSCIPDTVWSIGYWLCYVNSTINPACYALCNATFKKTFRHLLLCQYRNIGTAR
# Description: as §1
# rats [2] = test: Safety pharmacology and toxicology clinical signs, rat; assay type: in vivo
# Description: The rat and dog were appropriate species in which to conduct nonclinical safety evaluation and HTL9936. Male and female rates of the RccHan: WIST strain were obtained from Harlan, Bicester, UK. and the animals were approximately seven to eight weeks old at the start of dosing. Throughout the study the animals had access ad libitum to SQC Rat and Mouse Maintenance Diet No 1, Expanded, (Special Diets Services Ltd, Witham, UK). […] The temperature and relative humidity ranges were maintained in the specified ranges of 20 to 24°C and 45 to 65%, respectively.
# human M1 receptor [3] = target: T3, human M1 receptor (Homo sapiens, UniProt P11229); test: Interaction with ACh in IP1 assay after phenoxybenzamine receptor depletion (Schild); assay type: cell-based
# T3 construct: expressed in transfected cells
# T3 sequence (P11229 1-460): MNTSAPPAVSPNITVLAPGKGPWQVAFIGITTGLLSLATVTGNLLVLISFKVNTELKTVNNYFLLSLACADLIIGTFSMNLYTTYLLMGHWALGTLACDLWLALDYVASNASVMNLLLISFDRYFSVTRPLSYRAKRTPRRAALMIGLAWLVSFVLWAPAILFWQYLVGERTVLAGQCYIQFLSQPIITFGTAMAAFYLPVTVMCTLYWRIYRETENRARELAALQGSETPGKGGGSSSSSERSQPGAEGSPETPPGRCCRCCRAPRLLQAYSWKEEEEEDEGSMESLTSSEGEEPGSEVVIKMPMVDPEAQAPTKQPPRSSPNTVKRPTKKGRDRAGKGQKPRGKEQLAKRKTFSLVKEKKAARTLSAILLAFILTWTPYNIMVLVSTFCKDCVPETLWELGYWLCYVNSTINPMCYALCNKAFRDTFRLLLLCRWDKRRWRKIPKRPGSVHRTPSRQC
# human M1 receptor [4] = target: T3, human M1 receptor; test: Label-free dynamic mass redistribution in CHO cells overexpressing human M1-receptor; assay type: cell-based
# rats [5] = test: Modified Irwin Functional Observation Battery; assay type: in vivo; details: rat
# [6] = Modified Irwin Functional Observation Battery; assay type: in vivo; details: plasma; rat, 100 mg/kg oral
# dogs = test: Safety pharmacology and toxicology clinical signs, dog
# human M1 receptor [7] = target: T3, human M1 receptor; test: Inositol phosphate (IP1) accumulation in CHO Flp-In cells; assay type: cell-based
# locomotor activity = test: Locomotor activity alone or with amphetamine; assay type: in vivo; details: doses up to 100 mg/kg
# rat M1-receptor = target: T4, rat M1-receptor (Rattus norvegicus, UniProt P08482); test: Recombinant rat M1-receptor functional assay; assay type: cell-based
# T4 construct: expressed in transfected cells; host or cells: not described
# human M5-receptor = target: T5, human M5-receptor (Homo sapiens, UniProt P08912); test: M5-receptor functional agonist assay; assay type: cell-based
# T5 construct: expressed in transfected cells; host or cells: not described
# T5 sequence (P08912 whole entry): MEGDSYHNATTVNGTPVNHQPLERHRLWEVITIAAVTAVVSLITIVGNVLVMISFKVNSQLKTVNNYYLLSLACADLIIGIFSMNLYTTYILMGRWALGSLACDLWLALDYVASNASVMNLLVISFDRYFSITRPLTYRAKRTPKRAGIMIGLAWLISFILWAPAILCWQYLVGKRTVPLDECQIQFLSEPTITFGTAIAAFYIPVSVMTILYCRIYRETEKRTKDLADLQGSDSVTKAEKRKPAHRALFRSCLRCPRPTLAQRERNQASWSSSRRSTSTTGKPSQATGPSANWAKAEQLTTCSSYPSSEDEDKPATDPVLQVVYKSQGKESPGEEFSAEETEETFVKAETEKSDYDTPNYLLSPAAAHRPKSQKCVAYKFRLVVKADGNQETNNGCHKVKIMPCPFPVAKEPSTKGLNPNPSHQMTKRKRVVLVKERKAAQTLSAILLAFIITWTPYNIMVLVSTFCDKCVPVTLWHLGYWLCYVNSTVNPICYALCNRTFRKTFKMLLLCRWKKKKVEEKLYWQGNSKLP
# T1 sequence (P20309 whole entry): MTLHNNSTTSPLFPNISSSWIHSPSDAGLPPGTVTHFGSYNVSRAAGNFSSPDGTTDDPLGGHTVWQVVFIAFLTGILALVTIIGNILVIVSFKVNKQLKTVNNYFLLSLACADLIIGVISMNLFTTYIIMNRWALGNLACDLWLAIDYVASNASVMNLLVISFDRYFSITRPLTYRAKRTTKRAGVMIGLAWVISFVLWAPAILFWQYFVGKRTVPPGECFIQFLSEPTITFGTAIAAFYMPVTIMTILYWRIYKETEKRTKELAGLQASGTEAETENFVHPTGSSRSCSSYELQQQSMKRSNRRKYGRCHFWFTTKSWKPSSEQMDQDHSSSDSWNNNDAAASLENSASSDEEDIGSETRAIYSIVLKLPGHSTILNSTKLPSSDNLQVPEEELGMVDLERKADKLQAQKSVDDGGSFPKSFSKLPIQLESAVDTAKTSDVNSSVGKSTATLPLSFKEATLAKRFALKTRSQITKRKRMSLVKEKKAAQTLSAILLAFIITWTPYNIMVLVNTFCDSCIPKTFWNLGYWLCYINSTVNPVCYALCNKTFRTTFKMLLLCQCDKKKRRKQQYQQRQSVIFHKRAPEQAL
# T4 sequence (P08482 whole entry): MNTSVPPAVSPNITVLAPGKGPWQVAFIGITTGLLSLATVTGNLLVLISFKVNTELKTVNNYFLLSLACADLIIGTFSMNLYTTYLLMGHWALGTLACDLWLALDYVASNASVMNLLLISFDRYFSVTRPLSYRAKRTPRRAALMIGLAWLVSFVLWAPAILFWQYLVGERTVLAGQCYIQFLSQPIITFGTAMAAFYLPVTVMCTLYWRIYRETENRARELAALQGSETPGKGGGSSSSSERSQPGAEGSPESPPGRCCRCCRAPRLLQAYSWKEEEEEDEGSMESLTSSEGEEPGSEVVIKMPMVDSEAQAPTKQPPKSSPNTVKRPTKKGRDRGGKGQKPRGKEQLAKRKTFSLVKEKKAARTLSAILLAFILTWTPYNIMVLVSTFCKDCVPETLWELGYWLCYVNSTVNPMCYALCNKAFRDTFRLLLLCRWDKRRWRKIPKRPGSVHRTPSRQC
structure (smiles),measurement,setting,value
"CCOC(=O)N1CCC[C@H](N2CCC(C(=O)NC3(C)CCC3)CC2)CC1 [HTL9936, ethyl (S)-4-(4-((1-methylcyclobutyl)carbamoyl)piperidin-1-yl)azepane-1-carboxylate]",EC50,M3-receptor,> 20000 nM
same,M3-receptor agonist activity,M3-receptor,no detectable agonism
same,"Predicted brain exposure Cu,br",[1]; 0.3 mg/kg subcutaneous,20 nM
same,"Predicted brain exposure Cu,br",[1]; 3 mg/kg subcutaneous,198 nM
same,Oral bioavailability,[1]; primates,low oral bioavailability
same,Effect on scopolamine-induced fear learning deficit,C57BL/6J mice,dose-dependent restoration of learning and memory responses
same,EC50,M4-receptor,398 nM
same,M4-receptor agonist activity,M4-receptor,partial agonist activity
same,"Cu,pl without cholinergic clinical signs",rats [2],"1,372 nM"
same,Plasma exposure without cholinergic clinical signs,rats [2],up to 732 ng/mL
same,Kb,human M1 receptor [3],6310 nM
same,EC50,human M1 receptor [4],79 nM
same,"Cu,pl",rats [5]; 100 mg/kg oral,"11,994 nM"
same,Seizure-like effects,rats [5]; oral dosing up to 100 mg/kg,complete absence of seizure-like effects
same,Cmax,[6],6400 ng/mL
same,"Cu,pl above which clinical signs were observed",dogs,283 nM
same,"Plasma exposure above which salivation, vomiting, lacrimation were observed",dogs,exceeded 157 ng/mL
same,EC50,human M1 receptor [7],631 nM
same,Adverse responses and locomotor activity,locomotor activity,no adverse responses nor had any effect on locomotor activity
same,Agonist behaviour at the rat receptor,rat M1-receptor,partial agonist
same,M5-receptor agonism,human M5-receptor,no detectable agonism

# Source: article PMC7616177, “From structure to clinic: Design of a muscarinic M1 receptor agonist with the potential to treat Alzheimer’s disease” (Cell, 2021)
